According to ChEMBL document CHEMBL3885861, “Open TG-GATES”:

Species on record: Rattus norvegicus
Assay: Open TG-GATES - Regimen: Single
Type: toxicity, organism-based, Sprague-Dawley
Parameters: regimen Single, gender Male, age 6 weeks
Conditions: in vivo, po, 0 mg/kg, route gavage, dose level Control; for APTT / Bas / Eos / Fbg / Hb / Ht / Lym / MCH / MCHC / MCV / Mono / PT / Plat / RBC / Ret / WBC: tissue Blood; for KIDNEY_L / KIDNEY_R / KIDNEY_TOTAL: tissue Kidney; for LIVER: tissue Liver

Structure (SMILES): C#C[C@]1(O)CC[C@H]2[C@@H]3CCc4cc(O)ccc4[C@H]3CC[C@@]21C [ETHINYL ESTRADIOL]
- TERMINAL_BW (3 h): 196.6 g
- APTT (3 h): 16.9 s
- Bas (3 h): 0%
- Eos (3 h): 0.8%
- Fbg (3 h): 256 mg/dL
- Hb (3 h): 13.2 g/dL
- Ht (3 h): 39.9%
- Lym (3 h): 79.4%
- MCH (3 h): 21.8 pg
- MCHC (3 h): 33.1%
- MCV (3 h): 66 fL
- Mono (3 h): 3.8%
- PT (3 h): 12.2 s
- Plat (3 h): 117 x10_4/uL
- RBC (3 h): 604.8 x10_4/ul
- Ret (3 h): 9.9%
- WBC (3 h): 82.1 x10_2/uL
- KIDNEY_L (3 h): 0.8 g
- KIDNEY_R (3 h): 0.8 g
- KIDNEY_TOTAL (3 h): 1.7 g
- LIVER (3 h): 8.6 g
- ALP (3 h, tissue Plasma): 1558.8 IU/L
- ALT (3 h, tissue Plasma): 44 IU/L
- AST (3 h, tissue Plasma): 77.6 IU/L
- BUN (3 h, tissue Plasma): 10.6 mg/dL
- CRE (3 h, tissue Plasma): 0.2 mg/dL
- Ca (3 h, tissue Plasma): 11.3 mg/dL
- Cl (3 h, tissue Plasma): 107 meq/L
- DBIL (3 h, tissue Plasma): 0.02 mg/dL
- IP (3 h, tissue Plasma): 8.6 mg/dL
- K (3 h, tissue Plasma): 4 meq/L
- LDH (3 h, tissue Plasma): 56 IU/L
- Na (3 h, tissue Plasma): 142.4 meq/L
- PL (3 h, tissue Plasma): 157.6 mg/dL
- RALB (3 h, tissue Plasma): 2.6 g/dL
- TBIL (3 h, tissue Plasma): 0.044 mg/dL
- TC (3 h, tissue Plasma): 86.2 mg/dL
- TP (3 h, tissue Plasma): 5.5 g/dL
- gamma-GTP (3 h, tissue Plasma): 1.2 IU/L
- TERMINAL_BW (6 h): 194 g
- APTT (6 h): 16.2 s
- Bas (6 h): 0%
- Eos (6 h): 1%
- Fbg (6 h): 265.8 mg/dL
- Hb (6 h): 13.2 g/dL
- Ht (6 h): 39.3%
- Lym (6 h): 75%
- MCHC (6 h): 33.6%
- MCV (6 h): 63.4 fL
- PT (6 h): 12.3 s
- Plat (6 h): 123.8 x10_4/uL
- RBC (6 h): 620.2 x10_4/ul
- Ret (6 h): 9.8%
- WBC (6 h): 90.8 x10_2/uL
- KIDNEY_L (6 h): 0.8 g
- KIDNEY_R (6 h): 0.8 g
- KIDNEY_TOTAL (6 h): 1.7 g
- LIVER (6 h): 7.6 g
- ALP (6 h, tissue Plasma): 1686.2 IU/L
- ALT (6 h, tissue Plasma): 42 IU/L
- AST (6 h, tissue Plasma): 79.2 IU/L
- BUN (6 h, tissue Plasma): 7.6 mg/dL
- CRE (6 h, tissue Plasma): 0.2 mg/dL
- Ca (6 h, tissue Plasma): 10.8 mg/dL
- Cl (6 h, tissue Plasma): 109.4 meq/L
- DBIL (6 h, tissue Plasma): 0.012 mg/dL
- IP (6 h, tissue Plasma): 10.2 mg/dL
- K (6 h, tissue Plasma): 4 meq/L
- LDH (6 h, tissue Plasma): 53.6 IU/L
- Na (6 h, tissue Plasma): 144.6 meq/L
- PL (6 h, tissue Plasma): 122.6 mg/dL
- RALB (6 h, tissue Plasma): 2.6 g/dL
- TBIL (6 h, tissue Plasma): 0.046 mg/dL
- TC (6 h, tissue Plasma): 75.6 mg/dL
- TP (6 h, tissue Plasma): 5.4 g/dL
- gamma-GTP (6 h, tissue Plasma): 1 IU/L
- TERMINAL_BW (9 h): 195.8 g
- Bas (9 h): 0%
- Eos (9 h): 1%
- Fbg (9 h): 265.2 mg/dL
- Hb (9 h): 12.8 g/dL
- Ht (9 h): 38%
- Lym (9 h): 72.2%
- MCH (9 h): 21.8 pg
- MCHC (9 h): 33.6%
- MCV (9 h): 64.8 fL
- PT (9 h): 12.4 s
- Plat (9 h): 119.3 x10_4/uL
- RBC (9 h): 588 x10_4/ul
- Ret (9 h): 9.5%
- WBC (9 h): 73.4 x10_2/uL
- KIDNEY_L (9 h): 0.9 g
- KIDNEY_R (9 h): 0.9 g
- KIDNEY_TOTAL (9 h): 1.7 g
- LIVER (9 h): 7 g
- ALP (9 h, tissue Plasma): 1662.8 IU/L
- ALT (9 h, tissue Plasma): 42 IU/L
- AST (9 h, tissue Plasma): 75 IU/L
- BUN (9 h, tissue Plasma): 9.2 mg/dL
- CRE (9 h, tissue Plasma): 0.2 mg/dL
- Ca (9 h, tissue Plasma): 10.5 mg/dL
- Cl (9 h, tissue Plasma): 107.8 meq/L
- DBIL (9 h, tissue Plasma): 0.01 mg/dL
- IP (9 h, tissue Plasma): 10.7 mg/dL
- K (9 h, tissue Plasma): 3.8 meq/L
- LDH (9 h, tissue Plasma): 42 IU/L
- Na (9 h, tissue Plasma): 144 meq/L
- PL (9 h, tissue Plasma): 125.4 mg/dL
- RALB (9 h, tissue Plasma): 2.5 g/dL
- TBIL (9 h, tissue Plasma): 0.04 mg/dL
- TC (9 h, tissue Plasma): 77 mg/dL
- TP (9 h, tissue Plasma): 5.2 g/dL
- gamma-GTP (9 h, tissue Plasma): 1.2 IU/L
- TERMINAL_BW (24 h): 203.2 g
- APTT (24 h): 16.4 s
- Bas (24 h): 0%
- Eos (24 h): 1%
- Fbg (24 h): 245.4 mg/dL
- Hb (24 h): 12.9 g/dL
- Ht (24 h): 38.3%
- Lym (24 h): 76.2%
- MCH (24 h): 21.6 pg
- MCHC (24 h): 33.6%
- MCV (24 h): 64.4 fL
- Mono (24 h): 3.6%
- PT (24 h): 12.5 s
- Plat (24 h): 112.7 x10_4/uL
- RBC (24 h): 594.4 x10_4/ul
- Ret (24 h): 8.5%
- WBC (24 h): 103.2 x10_2/uL
- KIDNEY_L (24 h): 0.9 g
- KIDNEY_R (24 h): 0.9 g
- KIDNEY_TOTAL (24 h): 1.7 g
- LIVER (24 h): 8.9 g
- ALP (24 h, tissue Plasma): 1908.8 IU/L
- ALT (24 h, tissue Plasma): 52.2 IU/L
- AST (24 h, tissue Plasma): 78.6 IU/L
- BUN (24 h, tissue Plasma): 13.8 mg/dL
- CRE (24 h, tissue Plasma): 0.2 mg/dL
- Cl (24 h, tissue Plasma): 104.8 meq/L
- DBIL (24 h, tissue Plasma): 0.01 mg/dL
- GLC (24 h, tissue Plasma): 194.2 mg/dL
- IP (24 h, tissue Plasma): 7.7 mg/dL
- LDH (24 h, tissue Plasma): 62.4 IU/L
- Na (24 h, tissue Plasma): 141 meq/L
- PL (24 h, tissue Plasma): 136.2 mg/dL
- RALB (24 h, tissue Plasma): 2.5 g/dL
- TBIL (24 h, tissue Plasma): 0.034 mg/dL
